Test results from patent US20170266289A1, “TOPICAL FORMULATION” (AbbVie Inc., priority 2014, published 2017).
Values joined by “and” are separate entries in the source; they are usually repeats but may differ in a detail not shown here. Equal values may be shown once. Read-outs that look alike come from different tables or passages of the source.

Tests used:
[1] = Stability in plasma; assay type: in vitro ADME
From the text: Note that, due to the fact that BMS DPP is unstable in the plasma, the total blood concentration of BMS DPP cannot be determined.

[2] = test system: FITC-induced contact hypersensitivity (CHS); experiment: Prophylactic topical treatment of FITC-induced contact hypersensitivity, ear skin thickness; assay type: in vivo, mice; conditions: 1 hr prior to FITC challenge
From the text: Contact hypersensitivity (CHS) is an immunological response against a small chemical hapten. During the sensitization phase, dermal dendritic cells (DCs) and Langerhans cells take up the hapten peptide conjugate and process it and migrate to the draining lymph node, where they present the antigen (Ag) to naive T cells, leading to the formation of Ag-specific memory T cells. Subsequent contact with the same chemical results in the activation of memory T cells and the recruitment of inflammatory cells to the site of allergen exposure. This elicitation response is manifested as skin inflammation, which in a clinical context is called allergic contact dermatitis. One of the small chemical haptens is FITC. FITC-induced CHS is believed to be predominantly associated with the activation of Th2 cells. Upon challenging the skin with FITC in mice sensitized with FITC, it is believed that FITC-specific T cells are recruited to the skin and produce Th2 cytokines, including IL-4.
Briefly, on Day 0, ears of experimental animals were sensitized with FITC. On Day 6, ears of the treatment group animals (0.01%, 0.1%, and 1% treatment groups) were first provided topical treatment of the subject formulations one hour prior to the FITC challenge. Specifically, 20 μL total (10 μL inner ear, and 10 μL outer ear) of topical treatment were massaged all around the ear of each experimental animals prior to FITC epicutaneous application. […] Naïve group animals received no treatment during the experiment. On Day 7, about 24 hours post FITC challenge, ear thickness (in mm) of all animals were measured.
Betamethasone Dipropionate (BMS DPP) topical cream formulations with different concentrations (0.005%, 0.01%, 0.1%, and 1% w/w) were prepared according to Example 3.

[3] = test system: FITC-induced contact hypersensitivity (CHS); experiment: Topical treatment after FITC challenge in FITC-induced contact hypersensitivity, ear skin thickness; assay type: in vivo, mice; conditions: 4 hrs post FITC challenge
Experimental: Briefly, on Day 0, ears of experimental animals were sensitized with FITC. […] Naïve group animals received no treatment during the experiment. On Day 7, about 24 hours post FITC challenge, ear thickness (in mm) of all animals were measured. […]

[4] = In vitro release testing in Franz Cells, flux through Tuffryn membrane; assay type: in vitro ADME
Experimental: (§1) Diffusion assays were performed using Franz Cells and […]® plates, with Tuffryn®, polycarbonate, or polyester membranes, as well as hairless mouse skin. HPLC was employed to analyze in vitro samples.
Specifically, for the in vitro release testing in Franz Cells, vertical diffusion cells were filled with receptor media (phosphate buffer with 2% BSA). The receptor media was then agitated, with the exception of setup and sampling. Temperature is maintained at 32.5±2.0° C. Artificial membrane was then placed on the top of the cell, along with a dosage wafer, the formulation to be evaluated, and a glass sealing cap. A formulation permeability test was run in triplicate. Samples were collected at various programmed intervals, and sampling was an automated process by the system. Fresh media was pushed into the bottom of the cell while simultaneous sampling occurs from the top of the cell. All wells were sampled in a serial manner with the time of each sample recorded by the instrument.
(§2) Generally, flux is calculated by determining the amount of solute that diffuses across a membrane of known surface area per unit time. There are many ways to calculate this value. We measured solute concentration in known volumes of receiver media and calculated the total amount that diffused over the time course of the experiment.

[5] = Plasma PK and skin concentration after topical application of gel-cream to shaved backs of rats; assay type: in vivo; conditions: for Cmax / AUC(0-t): topical or ocular, rat plasma; for Kp at 24 h: skin/plasma
Experimental: In order to assess the effect of the permeation enhancer on API delivery to the skin (topical delivery) and to the plasma (systamic delivery) in vivo, 177.8 mg of the subject topical formulation (177.8 μL of the 1% Compound 1 gel-cream, or about 1.778 mg of Compound 1) was applied to the backs of rats on a 4 cm^2 area of shaved skin. Plasma PK data was obtained during a period of about 24 hours following the topical application. See results in FIG. 9A, and the tables below.
The same experiment was repeated for a topical formulation using Compound 2 as the API. Also see FIG. 9B.

[6] = In vitro release testing in […] plates, flux through polycarbonate membrane; assay type: in vitro ADME
Experimental: as §1
(§3) For in vitro release testing in […]® plates, a two-compartment well system was used, with an internal well having a membrane as the formulation compartment, and an outer well filled with receptor media (phosphate buffer with 2% BSA). The TRANS WELL® plates were then agitated in a temperature-controlled incubator with shaker. Samples were manually pulled at pre-determined intervals with a pipette. New media was added to the receptor well after each sampling to make up the volume loss.
as §2

[7] = Optical microscopy examination of the formulations; assay type: physicochemical; conditions: increasing the Transcutol HP content; data not shown
From the text: Thus maintaining a saturated solution with the presence of TRANSCUTOL HP™ is expected to increase in vitro flux and increase resultant skin exposures.

[8] = In vitro release testing in […] plates, flux through polyester membrane; assay type: in vitro ADME
Experimental: as §1, §3, §2

[9] = individual rats 1-3, topical 177.8 mg/animal in Formulation A (no Transcutol HP), 24 hr after dose
[10] = individual rats 4-6, topical 177.8 mg/animal in Formulation B (10% Transcutol HP), 24 hr after dose

CCC(=O)OCC(=O)[C@@]1(OC(=O)CC)[C@@H](C)C[C@H]2[C@@H]3CCC4=CC(=O)C=C[C@]4(C)[C@@]3(F)[C@@H](O)C[C@@]21C [BMS DPP, Betamethasone Dipropionate]
stability in the plasma [1]: unstable | reduced ear skin thickness ([2]; Study 1, 0.01%): 77% | reduced ear skin thickness ([2]; Study 1, 0.1%): 93% | reduced ear skin thickness ([2]; Study 1, 1%): 95% | reduced ear skin thickness ([2]; Study 2, 0.005%): 61% | reduced ear skin thickness ([2]; Study 2, 0.01%): 73% | reduced ear skin thickness ([2]; Study 2, 0.1%): 93% | reduced ear skin thickness, effect ([2]; combined Study 1 and 2, 0.005%): 61% | reduced ear skin thickness, effect ([2]; combined Study 1 and 2, 0.01%): 75% | reduced ear skin thickness, effect ([2]; combined Study 1 and 2, 0.1%): 93% | reduced ear skin thickness, effect ([2]; combined Study 1 and 2, 1%): 95% | reduced ear skin thickness ([3]; Study 1, 0.1%): 95% | reduced ear skin thickness ([3]; Study 1, 1%): 96% | reduced ear skin thickness ([3]; Study 2, 0.01%): 92% | reduced ear skin thickness ([3]; Study 2, 0.1%): 96% | reduced ear skin thickness, effect ([3]; combined Study 1 and 2, 0.01%): 92% | reduced ear skin thickness, effect ([3]; combined Study 1 and 2, 0.1%): 95% | reduced ear skin thickness, effect ([3]; combined Study 1 and 2, 1%): 96%

CC[C@@H]1C[C@H](NS(=O)(=O)C2CC2)C[C@@H]1c1nnc2cnc3[nH]ccc3n12 [Compound 1, N-((1S,3R,4S)-3-ethyl-4-(6H-pyrrolo[2,3-e][1,2,4]triazolo[4,3-a]pyrazin-1-yl)cyclopentyl)cyclopropanesulfonamide]
Ratio Transcutol HP/no enhancer, Flux Franz Cells Tuffryn membrane [4]: 1.20 | Flux Franz Cells Tuffryn membrane ([4]; Transcutol 10%): 7.64 | Flux Franz Cells Tuffryn membrane ([4]; no permeation enhancer): 6.34 | Cmax ([5]; rat, plasma, 177.8 mg, 177.8 mg 1% gel-cream topical on 4 cm^2, 10% Transcutol HP): 70.7 ng/mL | Cmax ([5]; rat, plasma, 177.8 mg, 177.8 mg 1% gel-cream topical on 4 cm^2, no permeation enhancer): 11.4 ng/mL | AUC(0-t) ([5]; rat, plasma, 177.8 mg, 177.8 mg 1% gel-cream topical, 10% Transcutol HP): 392 ng·h/mL | AUC(0-t) ([5]; rat, plasma, 177.8 mg, 177.8 mg 1% gel-cream topical, no permeation enhancer): 62.4 ng·h/mL | concentration at 24 h ([5]; rat, skin, topical, 1.778 mg, rat skin, 177.8 mg 1% gel-cream topical, 10% Transcutol HP, read-out: Skin conc. 24 hr): 25000 ng/g | concentration at 24 h ([5]; rat, skin, topical, 1.778 mg, rat skin, 177.8 mg 1% gel-cream topical, no permeation enhancer, read-out: Skin conc. 24 hr): 5340 ng/g | Ratio Transcutol HP/no enhancer, Plasma AUC0-t ([5]; rat, topical): 6.28 | Ratio Transcutol HP/no enhancer, Skin conc. 24 hr ([5]; rat, topical): 4.67 | Ratio Transcutol HP/no enhancer, Flux TRANSWELL plate Polycarbonate membrane [6]: 1.35 | Flux TRANSWELL plate Polycarbonate membrane ([6]; Transcutol 10%): 11.46 | Flux TRANSWELL plate Polycarbonate membrane ([6]; no permeation enhancer): 8.52 | amount solubilized in the gel-cream formulation [7]: solubilizes a greater amount | Ratio Transcutol HP/no enhancer, Flux TRANSWELL Plate polyester membrane [8]: 1.33 | Flux TRANSWELL Plate polyester membrane ([8]; Transcutol 10%): 5.42 | Flux TRANSWELL Plate polyester membrane ([8]; no permeation enhancer): 4.09

CC[C@@H]1CN(C(=O)NCC(F)(F)F)C[C@@H]1c1cnc2cnc3[nH]ccc3n12 [Compound 2, (3S,4R)-3-ethyl-4-(3H-imidazo[1,2-a]pyrrolo[2,3-e]pyrazin-8-yl)-N-(2,2,2-trifluoroethyl)pyrrolidine-1-carboxamide]
Plasma Conc. [5, 9]: 0.00 ng/mL | Skin Conc. [5, 9]: 2393 ng/g and 5908 ng/g and 7728 ng/g | Skin/Plasma Ratio ([5]; individual rats 4-6, Formulation B, 24 hr after dose): 11076 | Plasma Conc. [5, 10]: 4.46 ng/mL and 2.87 ng/mL and 0.00 ng/mL | Skin Conc. [5, 10]: 31734 ng/g and 16020 ng/g | concentration at 24 h ([5]; rat, plasma, topical, 177.8 mg, mean of rats 1-3, Formulation A, 24 hr after dose, read-out: Plasma Conc., Mean): 0 ng/mL | concentration at 24 h ([5]; rat, plasma, topical, 177.8 mg, mean of rats 4-6, Formulation B, 24 hr after dose, read-out: Plasma Conc., Mean): 2.44 ng/mL | concentration at 24 h ([5]; rat, plasma, topical, 177.8 mg/animal, individual rats 1-3, topical 177.8 mg/animal in Formulation A (no Transcutol HP), 24 hr after dose, read-out: Plasma Conc.): 0 ng/mL | concentration at 24 h ([5]; rat, skin, topical, 177.8 mg, mean of rats 1-3, Formulation A, 24 hr after dose, read-out: Skin Conc., Mean): 5340 ng/g | concentration at 24 h ([5]; rat, skin, topical, 177.8 mg, mean of rats 4-6, Formulation B, 24 hr after dose, read-out: Skin Conc., Mean): 25000 ng/g | concentration at 24 h ([5]; rat, skin, topical, 177.8 mg/animal, individual rats 4-6, topical 177.8 mg/animal in Formulation B (10% Transcutol HP), 24 hr after dose, read-out: Skin Conc.): 27100 ng/g | Kp at 24 h ([5]; rat, topical, 177.8 mg, individual rats 4-6, Formulation B, 24 hr after dose, read-out: Skin/Plasma Ratio): 6080 | Kp at 24 h ([5]; rat, topical, 177.8 mg, mean, Formulation B, 24 hr after dose, read-out: Skin/Plasma Ratio, Mean): 8580
